Data published in PMC7990796, “Efficacy of a Combined Antiplatelet Therapy Is Not Affected by a Simultaneous Binding of Cangrelor and PSB 0777 to Albumin” (Frontiers in Pharmacology, 2021).
Like-named read-outs stand apart in the source and are kept apart here.

How the values were obtained:
[1] = molecular target: T1, human serum albumin (Homo sapiens, UniProt P02768); experiment: Synchronous fluorescence spectra of HSA; format: binding; parameters: purchased Sigma (St. Louis, MO, United States); conditions: 0‒38.5 μM
T1 sequence (P02768 25-609): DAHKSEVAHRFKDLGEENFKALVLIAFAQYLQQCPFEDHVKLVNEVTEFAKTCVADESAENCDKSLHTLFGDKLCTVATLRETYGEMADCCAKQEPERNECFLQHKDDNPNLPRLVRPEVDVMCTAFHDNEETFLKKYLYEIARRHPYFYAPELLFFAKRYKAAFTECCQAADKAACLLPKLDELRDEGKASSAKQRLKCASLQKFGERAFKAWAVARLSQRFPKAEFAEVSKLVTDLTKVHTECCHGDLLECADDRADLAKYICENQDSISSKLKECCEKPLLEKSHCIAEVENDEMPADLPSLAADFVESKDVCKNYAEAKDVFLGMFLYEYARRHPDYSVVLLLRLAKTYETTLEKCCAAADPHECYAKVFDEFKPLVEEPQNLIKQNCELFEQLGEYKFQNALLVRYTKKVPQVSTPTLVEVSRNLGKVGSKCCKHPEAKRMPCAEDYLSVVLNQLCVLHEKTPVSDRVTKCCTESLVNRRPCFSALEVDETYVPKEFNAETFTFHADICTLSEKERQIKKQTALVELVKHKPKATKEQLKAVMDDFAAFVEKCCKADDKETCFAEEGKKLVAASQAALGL
Procedure: (§1) The fluorescence measurements for albumin-drug complexes were performed using a LS50B spectrofluorometer (Perkin Elmer, Waltham, MA, United States) equipped with 1.0 cm quartz cell. The fluorescence spectra for HSA solution (2.5 µM in 0.1 M phosphate buffer, pH 7.4) were recorded in the range of wavelength from 250 to 500 nm, with the excitation at 280 nm and the emission set at 350 nm. The slit widths for excitation and emission beams were set to 5 and 10 nm, respectively. The Perkin-Elmer FL WinLab software v. 4.00.03 was used to collect the measured data. An appropriate buffer blank spectrum was subtracted from the measured spectra for fluorescence background correction. The optical density of HSA solution was below 0.1 and within the albumin concentration range of 0‐2.5 µM we observed a linear relationship between protein concentration and fluorescence intensity (p < 0.0001, R^2 = 0.995). In consequence, the albumin fluorescence was not corrected for the inner filter effect. All measurements, except a thermodynamic analysis of the binding of antiplatelet compounds to HSA were performed at 25°C after 30 s incubation of a sample with the examined compound. Stock and working solutions of all compounds used in the experiments were prepared in PBS buffer, pH 7.4. The protein concentration was determined by BCA method ([Smith et al., 1985]).
To monitor changes in the polarity around the tyrosine and tryptophan residues of HSA evoked by the examined compounds, the synchronous fluorescence spectra of HSA (Δλ 15 nm and Δλ 60 nm) were recorded in the presence of increasing concentrations of PSB 0777 and cangrelor (0‒38.5 μM with 4 μM intervals).

[2] = molecular target: T1, human serum albumin; experiment: Fluorescence quenching of HSA in the presence of a competitor (warfarin or cangrelor); format: binding; parameters: purchased Sigma (St. Louis, MO, United States); conditions: for Kd: mean [95% CI], n = 5–6
Procedure: as §1
[…]. [Chaves et al., 2018]; [Manjushree and Revanasiddappa, 2019]). […].
Furthermore, to determine whether one antiplatelet compound could be displaced from HSA by the other, the binding site marker experiments were repeated, i.e. by titration of HSA with PSB 0777 (0‒38.5 µM) in the presence of 2.5 µM cangrelor, instead of a marker.

[3] = molecular target: T1, human serum albumin; parameters: purchased Sigma (St. Louis, MO, United States); method as in Boncler et al., 2018; Wzorek et al., 2020; conditions: SPR; ref Boncler et al., 2018; Wzorek et al., 2020; read-out: affinity of binding to HSA (SPR); cited from earlier work
[4] = molecular target: T1, human serum albumin; experiment: Fluorescence quenching of HSA (Stern-Volmer, saturation binding, van't Hoff analysis); conditions: for Number of binding sites n / Kd: mean [95% CI]; for KA: KA = 1/KD; for decrease of HSA fluorescence: 2.5 µM HSA; for ΔH^θ / ΔS^θ: van't Hoff plot, 292, 302, 312 K
Procedure: The fluorescence measurements for albumin-drug complexes were performed using a LS50B spectrofluorometer (Perkin Elmer, Waltham, MA, United States) equipped with 1.0 cm quartz cell. […] The slit widths for excitation and emission beams were set to 5 and 10 nm, respectively. The Perkin-Elmer FL WinLab software v. 4.00.03 was used to collect the measured data. An appropriate buffer blank spectrum was subtracted from the measured spectra for fluorescence background correction. […] In consequence, the albumin fluorescence was not corrected for the inner filter effect. All measurements, except a thermodynamic analysis of the binding of antiplatelet compounds to HSA were performed at 25°C after 30 s incubation of a sample with the examined compound. Stock and working solutions of all compounds used in the experiments were prepared in PBS buffer, pH 7.4.
To obtain the binding parameters: dissociation constant (KD) and the number of binding sites per protein molecule (n), the experimental data were fit to a saturation binding curve using nonlinear regression analysis.
The free energy change was estimated from the following relationship Eq. 4: ΔG^θ=ΔH^θ−TΔS^θ (4)

[5] = test system: platelets (platelet-rich plasma, isolated platelets); experiment: Inhibition of ADP-induced platelet activation (P-selectin/CD62P expression, flow cytometry); format: cell-based, human; conditions: 17 nM, 10 μM ADP; for decrease of ADP-dependent platelet activation: n = 5; for inhibition at 0.017 µM: Homo sapiens, Platelet, n = 6
Procedure: Human blood was obtained from consecutively recruited healthy volunteers (simple random non-stratified sampling): four men and seven women; mean age 25 ± 5 years. All individuals provided their written informed consent to participate in the study. The exclusion criteria were the same as described previously ([Wzorek et al., 2020]). The study was approved by the Human Studies Committee of the Medical University of Lodz (Poland) and was conducted in accordance with the guidelines established by the Declaration of Helsinki. Whole blood was collected into polypropylene tubes with a blood-to-acid citrate dextrose solution (ACD) ratio of 6:1 (vol:vol).
Human platelet-rich plasma (PRP) was prepared by centrifuging of anticoagulated whole blood at 190 x g for 12 min at 37°C. Platelet-poor plasma (PPP) was prepared by centrifuging the whole blood fraction left after removal of the PRP at 2500 x g for 12 min at 37°C. Platelet count in PRP was measured with automated haematology analyzer Sysmex XS-800i™ (Sysmex, Kobe, Japan) and adjusted to 1 × 10^8 cells per ml.
Suspensions of isolated platelets were obtained from PRP separated from anticoagulated whole blood containing 50 ng/ml PGE1. PRP was centrifuged at 800 x g for 15 min at 37°C to obtain a platelet pellet. Platelet pellet was immediately suspended in the Tyrode buffer (134 mM NaCl, 12 mM NaHCO3, 2.9 mM KCl, 0.34 mM Na2HPO4, 1 mM MgCl2, 10 mM HEPES, 5 mM glucose, pH 7.4) and diluted to a count 1 × 10^8 per ml, as described above.
The effect of plasma or HSA on inhibition of platelet activation by cangrelor was assessed by two-colour flow cytometry with the use of anti-CD61/PerCP (for platelet gating) and anti-CD62/PE (for detection of activated platelets). The antiplatelet activity of cangrelor was evaluated in PRP and suspensions of isolated platelets, when the effect of plasma was examined, or in isolated platelets containing 4% HSA, when the effect of albumin was studied. […] The activated platelets were stained with antibodies prior to fixation as described previously ([Wzorek et al., 2020]). A total of 10,000 events were acquired in each experiment using a FACSCanto II flow cytometer and surface expression of CD62P (P-selectin) in platelets was analysed using FACS/Diva v. 6.0 software (Becton-Dickinson, Franklin Lakes, NJ, United States).

[6] = test system: platelet function in whole blood; parameters: method as in Boncler et al., 2018; conditions: ref Boncler et al., 2018; cited from earlier work
[7] = molecular target: T1, human serum albumin; experiment: Surface plasmon resonance binding to immobilized HSA (Biacore X)
Procedure: Briefly, 100 µg of HSA was dissolved in 1 ml of 10 mM sodium acetate buffer, pH 4.0, and immobilized on the flow cell 1 of the sensor chip surface. No protein was immobilized on the flow cell 2, which was used as a control. […] The curves from three independent experiments were analyzed by global curve fitting of the entire data set using the Langmuir binding model with the BIAevaluation 4.1.1 software (Biacore AG, Uppsala, Sweden).

[8] = test system: HSA; conditions: 2005, cited from earlier work
[9] = concentration range 0–5 μM, 25°C
[10] = highest drug concentration 38.5 µM, n = 3

mean red shift of emission peak ([1]; Δλ 15 nm (tyrosine)) [nm]	mean red shift of emission peak ([1]; Δλ 60 nm (tryptophan)) [nm]	increase of dissociation constant in the presence of competitor compared to control ([2]; competitor warfarin) [fold]	n with competitor ([2]; competitor warfarin 2.5 µM)	n without competitor ([2]; control of the warfarin series)	Number of binding sites n ([4]; 0‒38.5 µM, n = 3)	ΔG^θ ([4]; 292 K) [kcal/mol]	ΔG^θ ([4]; 302 K) [kcal/mol]	KA ([4]; 302 K)	ΔG^θ ([4]; 312 K) [kcal/mol]	KA ([4]; 312 K)	decrease of HSA fluorescence [4, 9] [%]	decrease of HSA fluorescence [4, 10] [%]	ΔH^θ [4] [kcal/mol]	ΔS^θ [4] [J/mol * K]	SMILES	also measured
0.5	0.8	1.4	0.59 [0.19‒0.99]	0.69 [0.51‒0.88]	0.83 [−0.22 to 1.87]	-6.551	-6.733	6.43 [−5.24 to 1.99] × 10^4 [M^−1]	-6.917	7.50 [−0.90 to 3.91] × 10^4 [M^−1]	25	70	-1.21	76.49	Nc1nc(SCCc2ccc(S(=O)(=O)O)cc2)nc2c1ncn2[C@@H]1O[C@H](CO)[C@@H](O)[C@H]1O [PSB 0777]	increase of dissociation constant in the presence of competitor compared to control ([2]; competitor cangrelor): 1.2 fold; n with competitor ([2]; competitor cangrelor 2.5 µM): 0.65 [0.39‒0.92]; n without competitor ([2]; control of the cangrelor series): 0.61 [0.32‒0.89]; Kd [3]: 80.6 µM
0.3	2.1	2	1.39 [−0.07 to 2.85]	1.10 [0.67‒1.52]	0.99 [−0.29 to 2.27]	-6.522	-6.812	10.31 [0.20‒6.97] × 10^4 [M^−1]	-7.101	8.47 [0.19‒5.45] × 10^4 [M^−1]	40	75	1.93	121.01	CSCCNc1nc(SCCC(F)(F)F)nc2c1ncn2[C@@H]1O[C@H](COP(=O)(O)OP(=O)(O)C(Cl)(Cl)P(=O)(O)O)[C@@H](O)[C@H]1O [cangrelor]	decrease of ADP-dependent platelet activation ([5]; isolated platelets (compared with PRP)): 95%; decrease of ADP-dependent platelet activation ([5]; platelet-rich plasma): 77%; inhibition at 0.017 µM ([5]; control isolated platelets without HSA): 97%; inhibition at 0.017 µM ([5]; isolated platelets with 4% HSA): 74%; IC50 [6]: 0.017 µM; Kd ([2]; competitor warfarin 2.5 µM, read-out: KD with competitor): 16.8 µM; Kd ([2]; control of the warfarin series, read-out: KD without competitor): 8.3 µM; Kd ([7]; KA (equilibrium association constant), obtained from the binding rate constants): 16.3 µM; koff ([7]; human, pH 7.4): 0.0573 ± 0.000323 s⁻¹; kon ([7]; human, pH 7.4): 2820 ± 1.4e+06 M⁻¹ s⁻¹; Kd ([4]; 0‒38.5 µM, nonlinear regression, n = 3): 10.9 µM; Kd ([4]; 292 K, n = 3): 14.5 µM; Kd ([4]; 302 K, n = 3): 9.7 µM; Kd ([4]; 312 K, n = 3): 11.8 µM
															CC(C)Cc1ccc(C(C)C(=O)O)cc1 (centres unmarked) [ibuprofen]	KA (binding constant) reported earlier ([8]; used in the racemic form, ref Dufour and Dangles): 10^5–10^6 M^−1
															CC(=O)CC(c1ccccc1)c1c(O)c2ccccc2oc1=O (centres unmarked) [warfarin]	KA reported earlier ([8]; ref Yamasaki et al., 1996, Watanabe et al., 2001, Dufour and Dangles): 10^4–10^5 M^−1
